Laboratory results as given in patent US4122034A, “Antimicrobial compositions” (Schering Corporation, priority 1975, dated 1978).
In brackets after ≈: the same amount, converted by molar mass.

Assays:
Trychomonas vaginalis = experiment: In vitro Anti-Trichomonal activity (Table VII); type: cell-based
Description: (§1) All the tests were carried out and (when necessary) scored under standard conditions. "MIC" means "minimum inhibitory concentration."
In vitro Anti-Trichomonal Activity of some 2-aminoalkyl-3-
phenyl-indenes of formula II.

Trichophyton rubrum = experiment: In vitro antifungal activity, dilutions in Sabouraud's Dextrose Broth (Table IV); type: cell-based; details: 96 h
Description: as §1
(§2) In vitro Antifungal Activity of 2-amioalkyl-3-phenylindoles
(§3) of the formula I against Dermetophytes and Aspergillus.
(§4) Dilutions in Sabouraud's Dextrose Broth.

Trichophyton megninii = experiment: as above; type: cell-based; details: Trichophyton rubrum; after 96 hours
Description: as §1, §2, §3, §4

Microsporum nanum = experiment: as above; type: cell-based; details: Nannizzia nana; after 96 hours
Description: as §1, §2, §3, §4

Aspergillus niger 6275 = experiment: as above; type: cell-based; details: after 96 hours
Description: as §1, §2, §3, §4

Tricoderm sp. = experiment: as above; type: cell-based; details: after 96 hours
Description: as §1, §2, §3, §4

Trichophyton soudenense = experiment: as above; type: cell-based; details: after 96 hours
Description: as §1, §2, §3, §4

Trichophyton discoides = experiment: as above; type: cell-based; details: after 96 hours
Description: as §1, §2, §3, §4

Trichophyton tonsurans = experiment: as above; type: cell-based; details: after 96 hours
Description: as §1, §2, §3, §4

[1] = system: Trichophyton schoenleinii; experiment: as above; type: cell-based; details: 96 h
Description: as §1, §2, §3, §4

Microsporum distortum = experiment: as above; type: cell-based; details: after 96 hours
Description: as §1, §2, §3, §4

Aspergillus sp. No. 3 = experiment: as above; type: cell-based; details: after 96 hours
Description: as §1, §2, §3, §4

Trichophyton ferrugineum = experiment: as above; type: cell-based; details: Microsporum ferrugineum; after 96 hours
Description: as §1, §2, §3, §4

Epidermophyton floccosum = experiment: as above; type: cell-based; details: after 96 hours
Description: as §1, §2, §3, §4

Trichophyton ascoides = experiment: as above; type: cell-based; details: after 96 hours
Description: as §1, §2, §3, §4

Trichophyton gallinae = experiment: as above; type: cell-based; details: after 96 hours
Description: as §1, §2, §3, §4

[2] = system: Trichophyton mentagrophytes; experiment: as above; type: cell-based; details: 96 h
Description: as §1, §2, §3, §4

Pseudomonas acruginosa = experiment: In vitro antibacterial activity, dilution in Mueller Hinton Agar (Table I); type: cell-based
Description: as §1
(§5) In vitro Antibacterial Activity of 2-aminoalkyl-3-phenyl-
(§6) indoles of the formula I. Dilution in Mueller Hinton Agar pH 7.4

Proteus rettgeri = experiment: as above; type: cell-based; details: Providencia rettgeri; 'Proteus rettgeri mirabilis' [sic]; Mueller Hinton Agar pH 7.4
Description: as §1, §5, §6

Staphylococcus aureus = experiment: as above; type: cell-based; details: Mueller Hinton Agar pH 7.4
Description: as §1, §5, §6

Enterococcus = experiment: as above; type: cell-based
Description: as §1, §5, §6

Escherichia coli = experiment: as above; type: cell-based
Description: as §1, §5, §6

Streptococcus pyogenes = experiment: as above; type: cell-based
Description: as §1, §5, §6

Salmonella = experiment: as above; type: cell-based
Description: as §1, §5, §6

Proteus vulgaris = experiment: as above; type: cell-based; details: strain Napol, Mueller Hinton Agar pH 7.4
Description: as §1, §5, §6

Proteus mirabilis = experiment: as above; type: cell-based; details: Mueller Hinton Agar pH 7.4
Description: as §1, §5, §6

Proteus morganii = experiment: as above; type: cell-based; details: Morganella morganii; strain Valz; Mueller Hinton Agar pH 7.4
Description: as §1, §5, §6

Klebsiella = experiment: as above; type: cell-based
Description: as §1, §5, §6

Eubacterium lentum = experiment: In vitro activity against anaerobes in fluid Thioglycollate medium (Table II); type: cell-based; details: Eggerthella lenta
Description: as §1
(§7) In vitro activity of 2-aminoalkyl-3-phenylindoles of the formula I
(§8) against anaerobes in fluid Thioglycollate medium

Clostridium novyi = experiment: as above; type: cell-based
Description: as §1, §7, §8

Peptostreptococcus = experiment: as above; type: cell-based
Description: as §1, §7, §8

Bacteroides fragilis = experiment: as above; type: cell-based
Description: as §1, §7, §8

Bacteroides corrodens = experiment: as above; type: cell-based; details: Eikenella corrodens
Description: as §1, §7, §8

[3] = Acute toxicity in mice (Table V); details: mouse, in vivo
Description: as §1
Acute Toxicity of 2-aminoalkyl-3-phenylindoles of the formula I

`NCc1[nH]c2ccc(Cl)cc2c1-c1ccccc1` [C, 2-(1-aminomethyl)-5-chloro-3-phenylindole] showed an IC50 (Trychomonas vaginalis; 50% suppression, read-out: Minimal Level to Produce 50% Suppression) of 30 µg/mL (≈ 117 µM), an IC90 (Trychomonas vaginalis; 90% suppression, read-out: Minimal Level to Produce 90% Suppression) of 38 µg/mL (≈ 148 µM) and an MIC (Trichophyton rubrum; strain 3, after 96 hours) of 17.5 µg/mL (≈ 68.2 µM). It also gave an MIC (Trichophyton rubrum; strain 360, after 96 hours) of 7.5 µg/mL (≈ 29.2 µM), an MIC (Trichophyton rubrum; strain Blehl, after 96 hours) of 37.5 µg/mL (≈ 146 µM) and an MIC (Trichophyton rubrum; strain Haggerty, after 96 hours) of 7.5 µg/mL (≈ 29.2 µM). For the same molecule, the MIC (Trichophyton megninii) was 7.5 µg/mL (≈ 29.2 µM), the MIC (Microsporum nanum) was 3 µg/mL (≈ 11.7 µM) and the MIC (Aspergillus niger 6275) was 17.5 µg/mL (≈ 68.2 µM). It also gave an MIC (Tricoderm sp.) of 7.5 µg/mL (≈ 29.2 µM), an MIC (Trichophyton soudenense) of 17.5 µg/mL (≈ 68.2 µM) and an MIC (Trichophyton discoides) of 17.5 µg/mL (≈ 68.2 µM). The MIC (Trichophyton tonsurans) was 7.5 µg/mL (≈ 29.2 µM), the MIC ([1]; strain 2, after 96 hours) was 3 µg/mL (≈ 11.7 µM) and the MIC ([1]; strain not given, after 96 hours) was 17.5 µg/mL (≈ 68.2 µM). It also gave an MIC (Microsporum distortum) of 7.5 µg/mL (≈ 29.2 µM), an MIC (Aspergillus sp. No. 3) of 17.5 µg/mL (≈ 68.2 µM) and an MIC (Trichophyton ferrugineum) of 17.5 µg/mL (≈ 68.2 µM). For the same molecule, the MIC (Epidermophyton floccosum) was 17.5 µg/mL (≈ 68.2 µM), the MIC (Trichophyton ascoides) was 7.5 µg/mL (≈ 29.2 µM) and the MIC (Trichophyton gallinae) was 37.5 µg/mL (≈ 146 µM). For the same molecule, the MIC ([2]; strain A, after 96 hours) was 7.5 µg/mL (≈ 29.2 µM), the MIC ([2]; strain B, after 96 hours) was 7.5 µg/mL (≈ 29.2 µM) and the MIC ([2]; strain C, after 96 hours) was 3 µg/mL (≈ 11.7 µM). It also gave an MIC ([2]; strain H377, after 96 hours) of 17.5 µg/mL (≈ 68.2 µM), an MIC ([2]; strain Young, after 96 hours) of 7.5 µg/mL (≈ 29.2 µM) and an MIC (Pseudomonas acruginosa; pH 7.4, strain 130, Mueller Hinton Agar pH 7.4) of 17.5 µg/mL (≈ 68.2 µM). It also gave an MIC (Pseudomonas acruginosa; pH 7.4, strain 138, Mueller Hinton Agar pH 7.4) of 17.5 µg/mL (≈ 68.2 µM), an MIC (Pseudomonas acruginosa; pH 7.4, strain 762, Mueller Hinton Agar pH 7.4) of 37.5 µg/mL (≈ 146 µM) and an MIC (Pseudomonas acruginosa; pH 7.4, strain 8709, Mueller Hinton Agar pH 7.4) of 17.5 µg/mL (≈ 68.2 µM). It also gave an MIC (Pseudomonas acruginosa; pH 7.4, strain Trav. 1, Mueller Hinton Agar pH 7.4) of 17.5 µg/mL (≈ 68.2 µM), an MIC (Proteus rettgeri) of 7.5 µg/mL (≈ 29.2 µM) and an MIC (Staphylococcus aureus; 209P, pH 7.4, strain 209P) of 7.5 µg/mL (≈ 29.2 µM). It also gave an MIC (Staphylococcus aureus; pH 7.4, strain 59N) of 7.5 µg/mL (≈ 29.2 µM), an MIC (Staphylococcus aureus; pH 7.4, strain Gray) of 7.5 µg/mL (≈ 29.2 µM) and an MIC (Staphylococcus aureus; pH 7.4, strain Wood) of 7.5 µg/mL (≈ 29.2 µM). The MIC (Staphylococcus aureus; pH 7.4, strain Zeigler) was 3 µg/mL (≈ 11.7 µM), the MIC (Enterococcus; pH 7.4, strain 373, Mueller Hinton Agar pH 7.4) was 7.5 µg/mL (≈ 29.2 µM) and the MIC (Enterococcus; pH 7.4, strain 0928/72, Mueller Hinton Agar pH 7.4) was 7.5 µg/mL (≈ 29.2 µM). The MIC (Escherichia coli; pH 7.4, strain 777, Mueller Hinton Agar pH 7.4) was 3 µg/mL (≈ 11.7 µM), the MIC (Escherichia coli; pH 7.4, strain 1574-1, Mueller Hinton Agar pH 7.4) was 3 µg/mL (≈ 11.7 µM) and the MIC (Escherichia coli; pH 7.4, strain 4195, Mueller Hinton Agar pH 7.4) was 3 µg/mL (≈ 11.7 µM). It also gave an MIC (Escherichia coli; pH 7.4, strain 10536, Mueller Hinton Agar pH 7.4) of 7.5 µg/mL (≈ 29.2 µM), an MIC (Escherichia coli; pH 7.4, strain JR66, Mueller Hinton Agar pH 7.4) of 3 µg/mL (≈ 11.7 µM) and an MIC (Streptococcus pyogenes; pH 7.4, strain 27, Mueller Hinton Agar pH 7.4) of 7.5 µg/mL (≈ 29.2 µM). For the same molecule, the MIC (Streptococcus pyogenes; pH 7.4, strain C, Mueller Hinton Agar pH 7.4) was 7.5 µg/mL (≈ 29.2 µM), the MIC (Streptococcus pyogenes; pH 7.4, strain Cruz, Mueller Hinton Agar pH 7.4) was 3 µg/mL (≈ 11.7 µM) and the MIC (Salmonella; TYPHI, pH 7.4, B typhi, Mueller Hinton Agar pH 7.4) was 3 µg/mL (≈ 11.7 µM). For the same molecule, the MIC (Salmonella; pH 7.4, C1 Oao, Mueller Hinton Agar pH 7.4) was 3 µg/mL (≈ 11.7 µM), the MIC (Salmonella; pH 7.4, C2 Cuban, Mueller Hinton Agar pH 7.4) was 3 µg/mL (≈ 11.7 µM) and the MIC (Salmonella; pH 7.4, C2 Napc, Mueller Hinton Agar pH 7.4) was 3 µg/mL (≈ 11.7 µM). For the same molecule, the MIC (Salmonella; pH 7.4, Salmonella ent. 1, Mueller Hinton Agar pH 7.4) was 7.5 µg/mL (≈ 29.2 µM), the MIC (Proteus vulgaris) was 7.5 µg/mL (≈ 29.2 µM) and the MIC (Proteus mirabilis; pH 7.4, strain Hard) was 7.5 µg/mL (≈ 29.2 µM). It also gave an MIC (Proteus mirabilis; pH 7.4, strain Peras) of 7.5 µg/mL (≈ 29.2 µM), an MIC (Proteus morganii) of 7.5 µg/mL (≈ 29.2 µM) and an MIC (Klebsiella; pH 7.4, strain 121, Mueller Hinton Agar pH 7.4) of 3 µg/mL (≈ 11.7 µM). The MIC (Klebsiella; pH 7.4, strain 3020, Mueller Hinton Agar pH 7.4) was 3 µg/mL (≈ 11.7 µM), the MIC (Klebsiella; pH 7.4, strain AD17, Mueller Hinton Agar pH 7.4) was 7.5 µg/mL (≈ 29.2 µM) and the MIC (Klebsiella; pH 7.4, strain AD22, Mueller Hinton Agar pH 7.4) was 3 µg/mL (≈ 11.7 µM). The MIC (Klebsiella; pH 7.4, strain G3694, Mueller Hinton Agar pH 7.4) was 3 µg/mL (≈ 11.7 µM), the MIC (Eubacterium lentum; 48 hrs) was 7.5 µg/mL (≈ 29.2 µM) and the MIC (Eubacterium lentum; 72 hrs) was 7.5 µg/mL (≈ 29.2 µM). For the same molecule, the MIC (Clostridium novyi; 48 hrs) was 3 µg/mL (≈ 11.7 µM), the MIC (Clostridium novyi; 72 hrs) was 3 µg/mL (≈ 11.7 µM) and the MIC (Peptostreptococcus; 48 hrs) was 3 µg/mL (≈ 11.7 µM). It also gave an MIC (Peptostreptococcus; 72 hrs) of 3 µg/mL (≈ 11.7 µM), an MIC (Bacteroides fragilis; 48 hrs) of 3 µg/mL (≈ 11.7 µM) and an MIC (Bacteroides fragilis; 72 hrs) of 3 µg/mL (≈ 11.7 µM). For the same molecule, the MIC (Bacteroides corrodens; 48 hrs) was 3 µg/mL (≈ 11.7 µM), the MIC (Bacteroides corrodens; 72 hrs) was 3 µg/mL (≈ 11.7 µM) and the LD50 ([3]; Oral) was over 1000 mg/kg. For the same molecule, the LD50 ([3]; ip, I.P.) was 100 mg/kg and the LD50 ([3]; sc, S.C.) was 600 mg/kg.
